The assay has as its system GM01896 cells (MPS II dermal fibroblasts). Kind of assay: Assay 1: MPS cellular assay, MPS II (heparan sulfate disaccharide biomarkers by LC-MS). The note with it: Homo sapiens, Fibroblast, Assay 1 for MPS II, heparan sulfate disaccharide biomarkers (I2a4, I2a6, I2S0 and/or I2S6), read-out: IC50 Range. The assay is classed as cell-based, human. The method in brief: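 MPS II patient dermal fibroblasts (GM01896) treated with compound at ≤30 μM for 4 to 21 days. Heparan sulfate GAGs isolated by anion exchange, digested with heparinases I-III, aniline-tagged against [13C6]aniline standards and quantified by LC-MS; IC50 from curve fitting. Viability monitored by alamar blue or ATP.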

The structures appear in SMILES notation.

As for `Cn1ncc2ccc(-c3cc(Nc4ccc(-c5cocn5)cc4)nc(N4CCOCC4)n3)cc21` [[6-(1-methyl(1H-indazol-6-yl))-2-morpholin-4-ylpyrimidin-4-yl](4-(1,3-oxazol-4-yl)phenyl)amine], the IC50 is less than 500 nM.

Regarding `Cn1c(N2CCCC2)nc2ccc(-c3cc(Nc4ccc(Cl)cc4)nc(N4CCOCC4)n3)cc21` [(4-chlorophenyl)[6-(1-methyl-2-pyrrolidinylbenzimidazol-6-yl)-2-morpholin-4-ylpyrimidin-4-yl]amine], the IC50 lay in the range of 1000 to 5000 nM.

For the molecule `CNC(=O)c1ccc(Nc2cc(-c3ccc4nc(C)n(CC5CC5)c4c3)nc(N3CCOCC3)n2)cc1` [[4-({6-[1-(cyclopropylmethyl)-2-methylbenzimidazol-6-yl]-2-morpholin-4-ylpyrimidin-4-yl}amino)phenyl]-N-methylcarboxamide], the IC50 is less than 500 nM.

On to `Cn1ncc2ccc(-c3cc(Nc4ccc5[nH]ncc5c4)nc(N4CCOCC4)n3)cc21` [1H-indazol-5-yl[6-(1-methyl(1H-indazol-6-yl))-2-morpholin-4-ylpyrimidin-4-yl]amine], for which the IC50 was 1000 to 5000 nM.

With `Cc1nn(C)c2cc(-c3cc(Nc4ccc(Cl)cc4)nc(N4CCOCC4)n3)ncc12` [[6-(1,3-dimethylpyrazolo[5,4-d]pyridin-6-yl)-2-morpholin-4-ylpyrimidin-4-yl](4-chlorophenyl)amine], the IC50 was less than 500 nM.

Regarding `Clc1ccc(Nc2cc(-c3ccc4ncn(CC5CC5)c4c3)nc(N3CCOCC3)n2)cc1` [(4-chlorophenyl){6-[1-(cyclopropylmethyl)benzimidazol-6-yl]-2-morpholin-4-ylpyrimidin-4-yl}amine], the IC50 fell in the range of 500 to 1000 nM.

As to `Cn1cccc1-c1ccc(Nc2cc(-c3ccc4c(CCN5CCOCC5)nn(C)c4c3)nc(N3CCOCC3)n2)cc1` [{6-[1-methyl-3-(2-morpholin-4-ylethyl)(1H-indazol-6-yl)]-2-morpholin-4-ylpyrimidin-4-yl}[4-(1-methylpyrrol-2-yl)phenyl]amine], the IC50 was less than 500 nM.

Take `Clc1ccc(Nc2cc(-c3ccc4c(c3)ncn4CC3CC3)nc(N3CCOCC3)n2)cc1` [(4-chlorophenyl){6-[1-(cyclopropylmethyl)benzimidazol-5-yl]-2-morpholin-4-ylpyrimidin-4-yl}amine]: the IC50 lay in the range of 500 to 1000 nM.

Turning to `Clc1ccc(Nc2cc(-c3ccc4c(c3)ncn4C3COC3)nc(N3CCOCC3)n2)cc1` [(4-chlorophenyl)[2-morpholin-4-yl-6-(1-oxetan-3-ylbenzimidazol-5-yl)pyrimidin-4-yl]amine], the IC50 is 500 to 1000 nM.

Consider `Cn1ncc2ccc(-c3cc(Nc4ccc(C(=O)NC5CC5)cc4)nc(N4CCOCC4)n3)cc21` [N-cyclopropyl(4-{[6-(1-methyl(1H-indazol-6-yl))-2-morpholin-4-ylpyrimidin-4-yl]amino}phenyl)carboxamide], for which the IC50 lay within 1000 to 5000 nM.

For `Cc1ccc(Nc2cc(-c3ccc4cnn(C)c4c3)nc(N3CCOCC3)n2)cc1` [[6-(1-methyl(1H-indazol-6-yl))-2-morpholin-4-ylpyrimidin-4-yl](4-methylphenyl)amine], the IC50 lay within 1000 to 5000 nM.

For the molecule `Cc1nc2ccc(-c3cc(Nc4ccc(Cl)cc4)nc(N4CCOCC4)n3)cc2n1CCCN1CCCC1` [(4-chlorophenyl){6-[2-methyl-1-(3-pyrrolidinylpropyl)benzimidazol-6-yl]-2-morpholin-4-ylpyrimidin-4-yl}amine], the IC50 was in the range of 500 to 1000 nM.

Turning to `Cc1nn(CCCN2CCOCC2)c2cc(-c3cc(Nc4ccc(Cl)cc4)nc(N4CCOCC4)n3)ccc12` [(4-chlorophenyl){6-[3-methyl-1-(3-morpholin-4-ylpropyl)(1H-indazol-6-yl)]-2-morpholin-4-ylpyrimidin-4-yl}amine], the IC50 was in the range of 1000 to 5000 nM.

With `Cn1ncc2ccc(-c3cc(Nc4ccc(C5=NCCO5)cc4)nc(N4CCOCC4)n3)cc21` [[6-(1-methyl(1H-indazol-6-yl))-2-morpholin-4-ylpyrimidin-4-yl](4-(1,3-oxazolin-2-yl)phenyl)amine], the IC50 fell in the range of 1000 to 5000 nM.

On to `Cc1nn(C)c2cc(-c3cc(Nc4ccc(C5=NCCO5)cc4)nc(N4CCOCC4)n3)ccc12` [[6-(1,3-dimethyl(1H-indazol-6-yl))-2-morpholin-4-ylpyrimidin-4-yl](4-(1,3-oxazolin-2-yl)phenyl)amine], for which the 50% inhibitory concentration (IC50) was in the range of 1000 to 5000 nM.

For `CNC(=O)c1ccc(Nc2cc(-c3ccc4cnn(C5CC5)c4c3)nc(N3CCOCC3)n2)cc1` [(4-{[6-(1-cyclopropyl(1H-indazol-6-yl))-2-morpholin-4-ylpyrimidin-4-yl]amino}phenyl)-N-methylcarboxamide], the IC50 is less than 500 nM.

Regarding `Cn1nc(CCN2CCOCC2)c2ccc(-c3cc(Nc4ccc5ccn(C6CC6)c5c4)nc(N4CCOCC4)n3)cc21` [(1-cyclopropylindol-6-yl) {6-[1-methyl-3-(2-morpholin-4-ylethyl)(1H-indazol-6-yl)]-2-morpholin-4-ylpyrimidin-4-yl}amine], the IC50 fell in the range of 1000 to 5000 nM.

`Cn1ncc2ccc(-c3cc(Nc4ccc(-c5ncon5)cc4)nc(N4CCOCC4)n3)cc21` [[6-(1-methyl(1H-indazol-6-yl))-2-morpholin-4-ylpyrimidin-4-yl](4-(1,2,4-oxadiazol-3-yl)phenyl)amine]: the IC50 is 500 to 1000 nM.

On to `CNC(=O)c1ccc(Nc2cc(-c3ccc4c(cnn4CCCN4CCOCC4)c3)nc(N3CCOCC3)n2)cc1` [N-methyl[4-({2-morpholin-4-yl-6-[1-(3-morpholin-4-ylpropyl)(1H-indazol-5-yl)]pyrimidin-4-yl}amino)phenyl]carboxamide], for which the IC50 lay in the range of 1000 to 5000 nM.

Take `CNC(=O)c1ccc(Nc2cc(-c3ccc4ncn(C5CCC5)c4c3)nc(N3CCOCC3)n2)cc1` [(4-{[6-(1-cyclobutylbenzimidazol-6-yl)-2-morpholin-4-ylpyrimidin-4-yl]amino}phenyl)-N-methylcarboxamide]: the IC50 is less than 500 nM.

Turning to `Cc1nn(C)c2cc(-c3cc(Nc4ccc(Cl)cc4)nc(N4CCOCC4)n3)ccc12` [[6-(1,3-dimethyl(1H-indazol-6-yl))-2-morpholin-4-ylpyrimidin-4-yl](4-chlorophenyl)amine], the IC50 was in the range of 500 to 1000 nM.

Turning to `Cc1nc(-c2ccc(Nc3cc(-c4ccc5cnn(C)c5c4)nc(N4CCOCC4)n3)cc2)no1` [[4-(5-methyl(1,2,4-oxadiazol-3-yl))phenyl][6-(1-methyl(1H-indazol-6-yl))-2-morpholin-4-ylpyrimidin-4-yl]amine], the IC50 was 1000 to 5000 nM.

On to `CN(C)CCc1nn(C)c2cc(-c3cc(Nc4ccc(Cl)cc4)nc(N4CCOCC4)n3)ccc12` [[2-(6-{6-[(4-chlorophenyl)amino]-2-morpholin-4-ylpyrimidin-4-yl}-1-methyl(1H-indazol-3-yl))ethyl]dimethylamine], for which the IC50 fell in the range of 500 to 1000 nM.

Regarding `Cn1cnc2ccc(-c3cc(Nc4ccc(Br)cc4)nc(N4CCOCC4)n3)cc21` [(4-bromophenyl)[6-(1-methylbenzimidazol-6-yl)-2-morpholin-4-ylpyrimidin-4-yl]amine], the IC50 fell in the range of 500 to 1000 nM.

For the molecule `Cn1nc(CCN2CCOCC2)c2ccc(-c3cc(Nc4ccc(-c5c[nH]cn5)cc4)nc(N4CCOCC4)n3)cc21` [(4-imidazol-4-ylphenyl){6-[1-methyl-3-(2-morpholin-4-ylethyl)(1H-indazol-6-yl)]-2-morpholin-4-ylpyrimidin-4-yl}amine], the IC50 was in the range of 1000 to 5000 nM.

For the molecule `CNC(=O)c1ccc(Nc2cc(-c3ccc4c(cnn4CCN4CCOCC4)c3)nc(N3CCOCC3)n2)cc1` [N-methyl[4-({2-morpholin-4-yl-6-[1-(2-morpholin-4-ylethyl)(1H-indazol-5-yl)]pyrimidin-4-yl}amino)phenyl]carboxamide], the IC50 is 500 to 1000 nM.

In the case of `CNC(=O)c1ccc(Nc2cc(-c3ccc4ncn(CCN5CCOCC5)c4c3)nc(N3CCOCC3)n2)cc1` [N-methyl[4-({2-morpholin-4-yl-6-[1-(2-morpholin-4-ylethyl)benzimidazol-6-yl]pyrimidin-4-yl}amino)phenyl]carboxamide], the IC50 fell in the range of 500 to 1000 nM.

Regarding `Clc1ccc(Nc2cc(-c3cccc4[nH]cnc34)nc(N3CCOCC3)n2)cc1` [6-(1H-benzo[d]imidazol-4-yl)-N-(4-chlorophenyl)-2-morpholinopyrimidin-4-amine], the IC50 was 500 to 1000 nM.

As for `Cc1nn(C)c2cc(-c3cc(Nc4ccc(-n5nccn5)cc4)nc(N4CCOCC4)n3)cnc12` [[6-(1,3-dimethylpyrazolo[4,5-b]pyridin-6-yl)-2-morpholin-4-ylpyrimidin-4-yl](4-(1,2,3-triazol-2-yl)phenyl)amine], the IC50 is less than 500 nM.

With `Cc1nn(C)c2cc(-c3cc(Nc4ccc(-c5ncc(C(F)(F)F)[nH]5)cc4)nc(N4CCOCC4)n3)ccc12` [[6-(1,3-dimethyl(1H-indazol-6-yl))-2-morpholin-4-ylpyrimidin-4-yl]{4-[5-(trifluoromethyl)imidazol-2-yl]phenyl}amine], the IC50 lay in the range of 500 to 1000 nM.

`COc1cc(Nc2cc(-c3ccc4c(cnn4C)c3)nc(N3CCOCC3)n2)ccn1` [(2-methoxy(4-pyridyl))[6-(1-methyl(1H-indazol-5-yl))-2-morpholin-4-ylpyrimidin-4-yl]amine]: the 50% inhibitory concentration (IC50) lay in the range of 1000 to 5000 nM.

With `CNC(=O)c1ccc(Nc2cc(-c3ccc4cnn(CCCN5CCOCC5)c4c3)nc(N3CCOCC3)n2)cc1` [N-methyl[4-({2-morpholin-4-yl-6-[1-(3-morpholin-4-ylpropyl)(1H-indazol-6-yl)]pyrimidin-4-yl}amino)phenyl]carboxamide], the IC50 was less than 500 nM.

As for `Cn1cnc2ccc(-c3cc(Nc4ccc(S(N)(=O)=O)cc4)nc(N4CCOCC4)n3)cc21` [4-{[6-(1-methylbenzimidazol-6-yl)-2-morpholin-4-ylpyrimidin-4-yl]amino}benzenesulfonamide], the IC50 fell in the range of 1000 to 5000 nM.

Regarding `Clc1ccc(Nc2cc(-c3ccc4ncn(CCN5CCOCC5)c4c3)nc(N3CCOCC3)n2)cc1` [(4-chlorophenyl){2-morpholin-4-yl-6-[1-(2-morpholin-4-ylethyl)benzimidazol-6-yl]pyrimidin-4-yl}amine], the IC50 is less than 500 nM.

Turning to `CNC(=O)c1ccc(Nc2cc(-c3ccc4ncn(C)c4c3)nc(N3CCOCC3)n2)cn1` [N-methyl(5-{[6-(1-methylbenzimidazol-6-yl)-2-morpholin-4-ylpyrimidin-4-yl]amino}(2-pyridyl))carboxamide], the IC50 lay in the range of 500 to 1000 nM.

The record behind these values is patent US20190151312A1, “HEPARAN SULFATE BIOSYNTHESIS INHIBITORS FOR THE TREATMENT OF DISEASES” (BioMarin Pharmaceutical Inc., priority 2014, published 2019).
